# Tests used:
# cyclin D1 expression = test: Cyclin D1 expression in A375 cells; assay type: cell-based; design: dose or concentration left out as unconfirmed; settings: A375 cells, 24, 48 and 72 hours; time-dependent
# Description: FIG. 13 illustrates inhibition of […]) expression by A 77 1726.
# S6K 1 has been implicated in playing an important role in regulating expression of cyclin D1. Cyclin D1 expression was tested in the presence of A 77 1726. A375 cells were treated with […] A 77 1726 for 0, 24, 48 and 72 hours.
# [1] = target: recombinant p70 S6 kinase (S6K1) (Homo sapiens, UniProt P23443); test: In vitro p70 S6 kinase assay (ADP-Glo Kinase assay system); assay type: biochemical; settings: 30 min pre-incubation, ATP 10 μM, 1 hr, read-out: IC50, inhibition of recombinant S6K1 activity
# Sequence of recombinant p70 S6 kinase (S6K1) (P23443 whole entry): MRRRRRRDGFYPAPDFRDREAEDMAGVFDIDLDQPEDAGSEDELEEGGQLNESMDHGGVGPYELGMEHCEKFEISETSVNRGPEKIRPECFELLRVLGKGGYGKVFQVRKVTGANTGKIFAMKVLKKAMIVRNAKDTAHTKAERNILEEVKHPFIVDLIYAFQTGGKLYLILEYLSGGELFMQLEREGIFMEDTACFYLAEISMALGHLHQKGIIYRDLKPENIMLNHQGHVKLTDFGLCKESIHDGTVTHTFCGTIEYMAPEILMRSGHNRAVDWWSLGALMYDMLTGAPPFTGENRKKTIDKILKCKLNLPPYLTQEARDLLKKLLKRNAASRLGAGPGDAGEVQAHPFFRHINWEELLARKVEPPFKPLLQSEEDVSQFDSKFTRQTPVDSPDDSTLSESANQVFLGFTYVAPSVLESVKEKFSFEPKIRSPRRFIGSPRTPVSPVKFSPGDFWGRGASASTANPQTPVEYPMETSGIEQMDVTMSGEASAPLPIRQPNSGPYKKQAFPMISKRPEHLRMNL
# Description: Leflunomide and A77 1726 diluted at the final concentrations as indicated were pre-mixed with S6K1 for 30 min, followed by the addition of peptide substrate of S6K1 and incubation for 1 hr. S6K1 activity was measured by using a ADP-Glo™ system. The experiment was repeated with similar results. The data represents the mean±standard deviation from one experiment in triplicate.
# The ability of lefiunomide and A77 1726 to inhibit p70 S6 kinase assay was conducted by using an ADP-Glo™ Kinase assay system (Promega Corporation, Madison, Wis.). Briefly, A77 1726 or leflunomide diluted in the kinase buffer was mixed with recombinant p70 S6 kinase (100 ng/reaction) and incubated at room temperature for 30 min. Peptide substrate of p70 S6 kinase (5 μg/reaction) and ATP (10 μM, final concentration) was added, with a total final volume of 25 μl. After incubation for 1 hr, ADP-Glo™ reagent (25 μl) was added to each reaction. After incubation for 40 min, kinase detection substrate (luciferin) (50 μl/reaction) was added. After incubation fix 30 min, luciferase activity was measured by reading in a luminescence plate reader. The experiment was conducted in triplicate and repeated once with similar results. The data from one experiment were presented as mean±standard deviation.
# [2] = cited from earlier work
# MCF-7 cells = test: Western blot of protein phosphorylation in MCF-7 cells; assay type: cell-based
# Description: (A) A77 1726 induces MAP kinase activation in A375 cells cultured in 10% fetal bovine serum. A375 cells were seeded in a 6-well plate overnight and then stimulated with various concentrations of A77 1726 or PLX 4720 (1 μM) for 2 hr. Cells were harvested and analyzed for MAP kinase activation by anti-phospho-ERK1/2 antibody. The membrane was stripped and re-probed with anti-ERK1/2 antibody. (B) Lack of the feedback activation of the MAP and PI-3 kinase pathways in BT-20 cells. BT20 cells seeded in 6-well plates were starved in DMEM medium containing 05% EBS for 2 hr and treated with A77 1726 (0, 50 or 100 μM), Cells were harvested and analyzed for protein phosphorylation by specific antibodies as indicated. Protein loading was monitored by stripping membrane and re-probing with antibodies against non-phosphorylated proteins. (C) Strong feedback activation of the PI-3 kinase pathway and weak feedback activation of the MAP kinase pathway in MCF-7 cells by A77 1726 and rapamycin. […] Cells were harvested and analyzed for protein phosphorylation with the indicated antibodies. […] Cells were harvested and analyzed for protein phosphorylation by specific antibodies as indicated. Protein loading was monitored by stripping membrane and re-probing with antibodies against nonphosphorylated proteins. […]
# A375 cells = test: Cell cycle analysis (propidium iodine, flow cytometer); assay type: cell-based; settings: A375 cells, A77 1726 at 50 μM, 24 hr
# Description: (A) Ability of uridine to relieve the cell cycle arrest in the S phase. A375 cells grown in 6-well plates were treated with the indicated concentration of A771726 with or without uridine (200 μM) for 24 hr. Cell cycle was analyzed in a flow cytometer as described in Materials and Methods. (B) Effect of the MAP kinase pathway inhibitors on A77 1726-mediated cell cycle arrest in the S phase. A375 cells were treated with A771726 (100 μM) in the absence or presence of 0.1% DMSO, […] (1 μM), U0126 (10 μM), PD98059 (10 for 24 hr. Single cell suspensions were prepared and analyzed for cell cycle in a flow cytometer. (C) Effect of the PI-3 kinase pathway inhibitors and their effect on A77 1726-mediated cell cycle arrest. A375 cells were treated with A77 1726 (100 μM), rapamycin (20 nM), and/or LY294002 (10 μM). After incubation for 24 hr, cells were harvested and analyzed for cell cycle progress.
# Cells were grown in complete RPMI1640 medium with 10% fetal bovine serum in 6-well plates. Upon 60% confluence, the cells were treated with vehicle or with indicated concentrations of A77 1726 or various inhibitors as indicated for 24 hr. Cells were pulsed with 10 μM BrdU for 2 hr. Cells were harvested, denatured with 2N HCl for 5 min at room temperature followed by neutralization with 0.1M borate buffer (pH 8.5). After washing and blocking with normal mouse serum, the cells were stained with an Alexa Fluor 488-conjugated anti-BrdU monoclonal antibody (BD Bioscience), followed by analysis in a flow cytometer. Alexa Fluor 488-conjugated mouse IgG was included as a control. For cell cycle analysis, the cells were harvested and fixed with 2 ml cold 70% ethanol in PBS overnight at 4° C. Fixed cells were then washed 3 times with PBS, treated with RNaseA (100 μg/ml in 0.5 ml PBS). After incubation at room temperature for 30 min, cells were stained with 2.5 μl propidium iodine (10 mg/ml.) and immediately analyzed for DNA content in a flow cytometer.
# [3] = mice, single dose of 35 mg/kg of leflunomide
structure (smiles),measurement,setting,value
C/C(O)=C(\C#N)C(=O)Nc1ccc(C(F)(F)F)cc1 [A77 1726],effect on cyclin D1 expression,cyclin D1 expression,inhibited
same,IC50,[1],~80 µM
same,serum half-life of A77 1726,[2]; mice treated with leflunomide at a dose of 35 mg,15 h
same,serum concentration of A77 1726 at 24 hr,"[2]; mice, 24 hr after single dose of 35 mg/kg of leflunomide",250 µM
same,peak serum concentration of A77 1726,[2]; [3],500 µM
same,time to peak concentration of A77 1726,[2]; [3],≤ 4 h
same,effect on ERK phosphorylation,MCF-7 cells,slightly induced
same,effect on S6^S235/236 phosphorylation,MCF-7 cells,Inhibition
same,effect on cell cycle,A375 cells,sufficient to arrest cell cycle in the S phase

# Source: patent US20140121235A1, “Method for Treating S6K-Overexpressing Cancers” (Rush University Medical Center, priority 2012, published 2014)
